Test results as given in US20230416202A1, “Small Molecule Compounds and Compositions” (Telo Therapeutics, Inc., priority 2020, published 2023).

tested on: Mutant TERT; test: HepG2 hTERT mRNA assay (qPCR); type: cell-based, human; conditions: HepG2 cells (mutated TERT), 48 hours, TERT mRNA via qPCR
Procedure: HepG2 cells (hepatocyte carcinoma (HCC) cells; with mutated TERT) or HEK293T cells (with wild type (wt) TERT) were seeded at 4,000 cells/well in 96-well plates. The following day, test compounds were added to cells for at concentrations of 25 uM, 12.5 uM, 6.25 uM, 3.125 uM, 1.563 uM, 0.781 uM, 0.391 uM, 0.195 uM, 0.098 uM or vehicle control (0.1% DMSO). Each condition was tested in three replicate wells. 48 hours post drug addition, the cells were harvested for RNA using the 96-Magmax RNA Isolation kit (Cat. No. AM1830). RNA was converted to cDNA using the Superscript III First strand cDNA synthesis kit (Cat. No. 18080051). RNA and cDNA concentration and quality were determined using the NanoQuant nucleic acid quantification method. 500 ng cDNA from each sample was used to detect TERT mRNA via qPCR. GUSB was also measured as an internal control and fold change to vehicle control was determined using the delta CT method.

Compound	IC50 [nM]
O=C(O)CC1CC(c2ccc(C(F)(F)F)cc2)CN(Cc2ccc(C(F)(F)F)cc2)C1 (stereo not shown) [Compound 132]	500 to 5000

same assay, conditions: Homo sapiens; HepG2 cells (mutated TERT), 48 hours, TERT mRNA via qPCR

Compound	IC50 [nM]
O=C(O)C[C@H]1C[C@H](CCc2ccc(C(F)(F)F)cc2)CN(Cc2ccc(C(F)(F)F)cc2)C1 (racemic) [Compound 133, Anti-2-(1-(4-(trifluoromethyl)benzyl)-5-(4-(trifluoromethyl)phenethyl)piperidin-3-yl)acetic acid]	500 to 5000
O=C(O)C[C@@H]1C[C@@H](c2ccc(C(F)(F)F)cc2)CN(Cc2ccc(F)cc2)C1 [Compound 117, 2-((3S,5S)-1-(4-fluorobenzyl)-5-(4-(trifluoromethyl)phenyl)piperidin-3-yl)acetic acid]	500 to 5000
O=C(O)C[C@@H]1C[C@@H](c2ccc(C(F)(F)F)cc2)CN(Cc2ccccc2F)C1 [Compound 119, 2-((3S,5S)-1-(2-fluorobenzyl)-5-(4-(trifluoromethyl)phenyl)piperidin-3-yl)acetic acid]	500 to 5000
N#Cc1cc(CN2C[C@H](CC(=O)O)C[C@@H](c3ccc(C(F)(F)F)cc3)C2)ccc1Cl (racemic) [Compound 140, Anti-2-(1-(4-chloro-3-cyanobenzyl)-5-(4-(trifluoromethyl)phenyl)piperidin-3-yl)acetic acid]	500 to 5000
O=C(O)C[C@@H]1C[C@@H](c2ccc(Cl)cc2)CN(Cc2ccc(C(F)(F)F)cc2)C1 (single isomer, unassigned) [Compound 142]	< 500
CS(=O)(=O)c1ccc(CN2C[C@H](CC(=O)O)C[C@@H](c3ccc(C(F)(F)F)cc3)C2)cc1 [Compound 120, 2-((3S,5S)-1-(4-(methylsulfonyl)benzyl)-5-(4-(trifluoromethyl)phenyl)piperidin-3-yl)acetic acid]	500 to 5000
C#Cc1ccc([C@H]2C[C@H](CC(=O)O)CN(Cc3ccc(N=[N+]=[N-])cc3)C2)cc1 (racemic) [Compound 137, Anti-2-(1-(4-azidobenzyl)-5-(4-ethynylphenyl)piperidin-3-yl)acetic acid]	500 to 5000
O=C(O)C[C@@H]1C[C@@H](c2ccc(C(F)(F)F)cc2)CN(Cc2ccc(F)c(F)c2)C1 [Compound 118, 2-((3S,5S)-1-(3,4-difluorobenzyl)-5-(4-(trifluoromethyl)phenyl)piperidin-3-yl)acetic acid]	< 500
O=C(O)C[C@H]1C[C@H](c2ccc(C(F)(F)F)cc2)CN(Cc2ccc(C(F)(F)F)cc2F)C1 (racemic) [Compound 128, Anti-2-(1-(2-fluoro-4-(trifluoromethyl)benzyl)-5-(4-(trifluoromethyl)phenyl)piperidin-3-yl)acetic acid]	500 to 5000
[N-]=[N+]=NCc1ccc(CN2C[C@H](CC(=O)O)C[C@@H](c3ccc(N=[N+]=[N-])cc3)C2)cc1 (single isomer, unassigned) [Compound 145]	500 to 5000
O=C(O)C[C@H]1C[C@H](c2ccc(C(F)(F)F)c(F)c2)CN(Cc2ccc(C(F)(F)F)cc2)C1 (racemic) [Compound 129, Anti-2-(5-(3-fluoro-4-(trifluoromethyl)phenyl)-1-(4-(trifluoromethyl)benzyl)piperidin-3-yl)acetic acid]	500 to 5000
O=C(O)C[C@H]1C[C@H](c2ccc(Cl)cc2)CN(Cc2ccc(Cl)cc2)C1 (racemic) [Compound 135, Anti-2-(1-(4-chlorobenzyl)-5-(4-chlorophenyl)piperidin-3-yl)acetic acid]	< 500
CCC(C(=O)O)[C@@H]1C[C@@H](c2ccc(C(F)(F)F)cc2)CN(Cc2ccc(C(F)(F)F)cc2)C1 (mixture of isomers) [Compound 125, Anti-2-(1-(4-(trifluoromethyl)benzyl)-5-(4-(trifluoromethyl)phenyl)piperidin-3-yl)butanoic acid]	500 to 5000
N#Cc1cccc(CN2C[C@@H](CC(=O)O)C[C@H](c3ccc(C(F)(F)F)cc3)C2)c1 (racemic) [Compound 124, Anti-2-(-1-(3-cyanobenzyl)-5-(4-(trifluoromethyl)phenyl)piperidin-3-yl)acetic acid]	< 500
C#Cc1ccc([C@@H]2C[C@@H](CC(=O)O)CN(Cc3ccc(C4(C(F)(F)F)N=N4)cc3)C2)cc1 (single isomer, unassigned) [Compound 146]	500 to 5000
O=C(O)C[C@H]1C[C@H](c2cccc(Cl)c2)CN(Cc2ccc(C(F)(F)F)cc2)C1 (racemic) [Compound 143, Anti-2-(5-(3-chlorophenyl)-1-(4-(trifluoromethyl)benzyl)piperidin-3-yl)acetic acid]	5000 to 25000
O=C(O)CC[C@H]1C[C@H](c2ccc(C(F)(F)F)cc2)CN(Cc2ccc(C(F)(F)F)cc2)C1 [Compound 126, Anti-3-(1-(4-(trifluoromethyl)benzyl)-5-(4-(trifluoromethyl)phenyl)piperidin-3-yl)propanoic acid]	500 to 5000
O=C(O)C[C@H]1C[C@H](c2ccc(C(F)(F)F)cc2)CN(Cc2ccccc2)C1 (racemic) [Compound 138, Anti-2-(1-benzyl-5-(4-(trifluoromethyl)phenyl)piperidin-3-yl)acetic acid]	500 to 5000
O=C(O)C[C@H]1C[C@H](c2ccc(F)cc2)CN(Cc2ccc(C(F)(F)F)cc2)C1 (racemic) [Compound 122, Anti-2-(5-(4-fluorophenyl)-1-(4-(trifluoromethyl)benzyl)piperidin-3-yl)acetic acid]	500 to 5000
O=C(O)C[C@H]1C[C@H](c2ccc(F)c(F)c2)CN(Cc2ccc(C(F)(F)F)cc2)C1 (racemic) [Compound 121, Anti-2-(-5-(3,4-difluorophenyl)-1-(4-(trifluoromethyl)benzyl)piperidin-3-yl)acetic acid]	500 to 5000
O=C(O)C[C@H]1C[C@H](c2ccc(C(F)(F)F)cc2)CN(Cc2ccc(C(F)(F)F)cc2Cl)C1 (racemic) [Compound 131, Anti-2-(-1-(2-chloro-4-(trifluoromethyl)benzyl)-5-(4-(trifluoromethyl)phenyl)piperidin-3-yl)acetic acid]	500 to 5000
C#Cc1ccc(CN2C[C@H](CC(=O)O)C[C@@H](c3ccc(N=[N+]=[N-])cc3)C2)cc1 (single isomer, unassigned) [Compound 144]	500 to 5000
O=C(O)C[C@H]1C[C@H](c2ccc(Cl)cc2)CN(Cc2ccc(C(F)(F)F)cc2)C1 (racemic) [Compound 123, Anti-2-(-5-(4-chlorophenyl)-1-(4-(trifluoromethyl)benzyl)piperidin-3-yl)acetic acid]	< 500
O=C(O)C[C@@H]1C[C@@H](c2ccc(Cl)cc2)CN(Cc2ccc(Cl)cc2)C1 [Compound 139, 2-((3S,5S)-1-(4-chlorobenzyl)-5-(4-chlorophenyl)piperidin-3-yl)acetic acid]	500 to 5000
O=C(O)C[C@H]1C[C@H](c2ccc(C(F)(F)F)cc2)CN(Cc2ccc3ccccc3c2)C1 (racemic) [Compound 141, Anti-2-(1-(naphthalen-2-ylmethyl)-5-(4-(trifluoromethyl)phenyl)piperidin-3-yl)acetic acid]	500 to 5000
O=C(O)C[C@H]1C[C@H](c2ccc(C(F)(F)F)cc2)CN(Cc2ccc(C(F)(F)F)c(F)c2)C1 (racemic) [Compound 130, Anti-2-(1-(3-fluoro-4-(trifluoromethyl)benzyl)-5-(4-(trifluoromethyl)phenyl)piperidin-3-yl)acetic acid]	500 to 5000
O=C(O)C[C@@H]1C[C@@H](c2ccc(C(F)(F)F)cc2)CN(Cc2ccc(Cl)cc2)C1 [Compound 116, 2-((3S,5S)-1-(4-chlorobenzyl)-5-(4-(trifluoromethyl)phenyl)piperidin-3-yl)acetic acid]	500 to 5000
